Data reported in ChEMBL document CHEMBL3045592, “Studies of O,O-dimethyl α-(2,4-dichlorophenoxyacetoxy)ethylphosphonate (HW02) as a new herbicide. 1. Synthesis and herbicidal activity of HW02 and analogues as novel inhibitors of pyruvate dehydrogenase complex” (J Agric Food Chem, 2011).

Assays:
Oryza sativa [1] = test: Inhibition of PDHc in Oryza sativa (rice) shoot mitochondria assessed as decrease in rate of NADH formation using sodium pyruvate as substrate at 1000 microg/g preincubated for 25 min before substrate addition measured after 1 min by spectrophotometric assay
[2] = Toxicity against Triticum aestivum Yang Mai 1 (wheat) assessed as growth inhibition at 600 ai g/ha post-emergent application measured after 20 days by green house crop selectivity test; type: organism-based; details: Yang Mai 1, triticum aestivum, in vivo, read-out: GI
Medicago sativa [3] = test: Post-emergence herbicidal activity against Medicago sativa (alfalfa) assessed as growth inhibition at 75 ai g/ha after 20 days by green house test; type: functional
Daucus carota [4] = test: Post-emergence herbicidal activity against Daucus carota (carrot) assessed as growth inhibition at 300 ai g/ha after 20 days by green house test; type: functional
Echinochloa crus-galli [5] = test: Post-emergence herbicidal activity against Echinochloa crus-galli (barnyard grass) assessed as growth inhibition at 37.5 ai g/ha after 20 days by green house test; type: functional
Echinochloa crus-galli [6] = test: Post-emergence herbicidal activity against Echinochloa crus-galli (barnyard grass) assessed as growth inhibition at 18.75 ai g/ha after 20 days by green house test; type: functional
[7] = Toxicity against Oryza sativa (rice) assessed as growth inhibition at 300 ai g/ha post-emergent application measured after 20 days by green house crop selectivity test; type: organism-based; details: in vivo, read-out: GI
[8] = Toxicity against Zea mays Gao you 1 (maize) assessed as growth inhibition at 150 ai g/ha post-emergent application measured after 20 days by green house crop selectivity test; type: organism-based; details: Gao you 1, zea mays, in vivo, read-out: GI
Echinochloa crus-galli [9] = test: Post-emergence herbicidal activity against Echinochloa crus-galli (barnyard grass) assessed as growth inhibition at 75 ai g/ha after 20 days by green house test; type: functional
Cardamine hirsuta [10] = test: Post-emergence herbicidal activity against Cardamine hirsuta assessed as growth inhibition at 150 ai g/ha after 20 days by green house test; type: functional
Digitaria sanguinalis [11] = test: Post-emergence herbicidal activity against Digitaria sanguinalis (hairy crabgrass) assessed as growth inhibition at 37.5 ai g/ha after 20 days by green house test; type: functional
Xanthium strumarium [12] = test: Post-emergence herbicidal activity against Xanthium strumarium (cocklebur) assessed as growth inhibition at 37.5 ai g/ha after 20 days by green house test; type: functional
Portulaca oleracea [13] = test: Post-emergence herbicidal activity against Portulaca oleracea assessed as growth inhibition at 450 ai g/ha after 20 days by green house test; type: functional
Xanthium strumarium [14] = test: Post-emergence herbicidal activity against Xanthium strumarium (cocklebur) assessed as growth inhibition at 75 ai g/ha after 20 days by green house test; type: functional
Medicago sativa [15] = test: Post-emergence herbicidal activity against Medicago sativa (alfalfa) assessed as growth inhibition at 150 ai g/ha after 20 days by green house test; type: functional
Xanthium strumarium [16] = test: Post-emergence herbicidal activity against Xanthium strumarium (cocklebur) assessed as growth inhibition at 150 ai g/ha after 20 days by green house test; type: functional
Cardamine hirsuta [17] = test: Post-emergence herbicidal activity against Cardamine hirsuta assessed as growth inhibition at 300 ai g/ha after 20 days by green house test; type: functional
[18] = Toxicity against Oryza sativa (rice) assessed as growth inhibition at 225 ai g/ha post-emergent application measured after 20 days by green house crop selectivity test; type: organism-based; details: in vivo, read-out: GI
Eclipta prostrata = test: Post-emergence herbicidal activity against Eclipta prostrata assessed as growth inhibition at 75 ai g/ha after 20 days by green house test; type: functional
Medicago sativa [19] = test: Post-emergence herbicidal activity against Medicago sativa (alfalfa) assessed as growth inhibition at 225 ai g/ha after 20 days by green house test; type: functional
Daucus carota [20] = test: Post-emergence herbicidal activity against Daucus carota (carrot) assessed as growth inhibition at 75 ai g/ha after 20 days by green house test; type: functional
Portulaca oleracea [21] = test: Post-emergence herbicidal activity against Portulaca oleracea assessed as growth inhibition at 300 ai g/ha after 20 days by green house test; type: functional
Daucus carota [22] = test: Post-emergence herbicidal activity against Daucus carota (carrot) assessed as growth inhibition at 37.5 ai g/ha after 20 days by green house test; type: functional
[23] = Toxicity against Zea mays Gao you 1 (maize) assessed as growth inhibition at 600 ai g/ha post-emergent application measured after 20 days by green house crop selectivity test; type: organism-based; details: Gao you 1, zea mays, in vivo, read-out: GI
Medicago sativa [24] = test: Post-emergence herbicidal activity against Medicago sativa (alfalfa) assessed as growth inhibition at 300 ai g/ha after 20 days by green house test; type: functional
Oryza sativa [25] = test: Inhibition of PDHc in Oryza sativa (rice) shoot mitochondria assessed as decrease in rate of NADH formation using sodium pyruvate as substrate at 0.1 microg/g preincubated for 25 min before substrate addition measured after 1 min by spectrophotometric assay
Digitaria sanguinalis [26] = test: Post-emergence herbicidal activity against Digitaria sanguinalis (hairy crabgrass) assessed as growth inhibition at 300 ai g/ha after 20 days by green house test; type: functional
Echinochloa crus-galli [27] = test: Post-emergence herbicidal activity against Echinochloa crus-galli (barnyard grass) assessed as growth inhibition at 150 ai g/ha after 20 days by green house test; type: functional

SMILES: COP(=O)(OC)C(C)OC(=O)COc1ccc(Cl)cc1Cl (stereo not drawn) [CLACYFOS]
- inhibition (Oryza sativa [1]): 55.1%
- inhibition at 480 h [2]: 0%
- growth inhibition (GI) (Medicago sativa [3]): 84%
- growth inhibition (GI) (Daucus carota [4]): 100%
- growth inhibition (GI) (Echinochloa crus-galli [5]): 0%
- growth inhibition (GI) (Echinochloa crus-galli [6]): 0%
- inhibition at 480 h [7]: 0%
- inhibition at 480 h [8]: 0%
- growth inhibition (GI) (Echinochloa crus-galli [9]): 0%
- growth inhibition (GI) (Cardamine hirsuta [10]): 92.5%
- growth inhibition (GI) (Digitaria sanguinalis [11]): 0%
- growth inhibition (GI) (Xanthium strumarium [12]): 60%
- growth inhibition (GI) (Portulaca oleracea [13]): 100%
- growth inhibition (GI) (Xanthium strumarium [14]): 72%
- growth inhibition (GI) (Medicago sativa [15]): 90%
- growth inhibition (GI) (Xanthium strumarium [16]): 90%
- growth inhibition (GI) (Cardamine hirsuta [17]): 100%
- inhibition at 480 h [18]: 0%
- growth inhibition (GI) (Eclipta prostrata): 82.5%
- growth inhibition (GI) (Medicago sativa [19]): 95%
- growth inhibition (GI) (Daucus carota [20]): 90%
- growth inhibition (GI) (Portulaca oleracea [21]): 95%
- growth inhibition (GI) (Daucus carota [22]): 85%
- inhibition at 480 h [23]: 0%
- growth inhibition (GI) (Medicago sativa [24]): 97%
- inhibition (Oryza sativa [25]): 3.4%
- growth inhibition (GI) (Digitaria sanguinalis [26]): 32%
- growth inhibition (GI) (Echinochloa crus-galli [27]): 0%
